Assay results from publication PMC3264552, “Expression in Antennae and Reproductive Organs Suggests a Dual Role of an Odorant-Binding Protein in Two Sibling Helicoverpa Species” (PLoS ONE, 2012).
Where two headings read alike, the source gives them in different places. Each block holds one compound with its values, some of them ahead of it.

Experiments:
recombinant HarmOBP10 [1] = target: T1, recombinant HarmOBP10 (Helicoverpa armigera, UniProt G9I573); test: Competitive fluorescence binding assay (displacement of 1-NPN from HarmOBP10); conditions: for activity at 6 µM / activity at 16 µM / activity at 1.6 µM: read-out: % at max (percent of fluorescence measured at the maximum concentration); for quality as ligand of OBP10, in words: authors' comment on Table 1; for activity at 1.6 µM: max conc 1.6 (titration 0.5–1.6 µM)
Experimental: Emission fluorescence spectra were recorded on a Hitachi F-4500 at 25°C in a right angle configuration, with a 1 cm light path quartz cuvette and 5 nm slits for both excitation and emission. The protein was dissolved in 50 mM Tris-HCl buffer, pH 7.4, while ligands were added as 1 mM methanol solutions.
The probe was excited at 337 nm and emission spectra were recorded between 380 and 450 nm. […] Dissociation constant for 1-NPN and the stoichiometry of binding was obtained processing the data with Prism software.

recombinant HarmOBP10 [2] = target: T1, recombinant HarmOBP10; test: Fluorescence binding assay of the probe 1-NPN to recombinant HarmOBP10
Experimental: Emission fluorescence spectra were recorded on a Hitachi F-4500 at 25°C in a right angle configuration, with a 1 cm light path quartz cuvette and 5 nm slits for both excitation and emission. […]
The probe was excited at 337 nm and emission spectra were recorded between 380 and 450 nm. […] Dissociation constant for 1-NPN and the stoichiometry of binding was obtained processing the data with Prism software. Dissociation constants of the competitors were calculated from the corresponding IC50 values (concentrations of ligands halving the initial fluorescence value of 1-NPN), using the equation: KD = [IC50]/1+[1-NPN]/K1-NPN, [1-NPN] being the free concentration of 1-NPN and K1-NPN being the dissociation constant of the complex protein/1-NPN.

[3] = max conc 6 (titration 0.5–6 µM), protein and 1-NPN both 2 µM, percent of fluorescence without competitor
[4] = calculated from IC50: KD = [IC50]/1+[1-NPN]/K1-NPN, read-out: KD (calculated dissociation constant)
[5] = max conc 16 (titration 2–16 µM), protein and 1-NPN both 2 µM, percent of fluorescence without competitor
[6] = protein and 1-NPN both 2 µM, Tris pH 7.4, unit from method text, not in table, read-out: IC50 (concentration of ligand halving the initial fluorescence value)
[7] = protein and 1-NPN both 2 µM, percent of fluorescence without competitor

T1 sequence (G9I573 entry or part of it): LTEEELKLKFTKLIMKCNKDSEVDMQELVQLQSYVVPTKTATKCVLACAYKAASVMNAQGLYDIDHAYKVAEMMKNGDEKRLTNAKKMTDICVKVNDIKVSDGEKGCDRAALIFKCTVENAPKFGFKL

activity at 6 µM (recombinant HarmOBP10 [1]; [3]): 63%
SMILES: CCCCCCCCCCO [1-Decanol]

activity at 6 µM (recombinant HarmOBP10 [1]; [3]): 62%
SMILES: CCCCCCCCCCCCS [1-Dodecanthiol]

SMILES: C=CCCCCCCCCCC [1-Dodecene]
IC50 (recombinant HarmOBP10 [1]): 6 µM
Kd (recombinant HarmOBP10 [1]): 4.7 µM
quality as ligand of OBP10, in words (recombinant HarmOBP10 [1]): rather good ligand
activity at 6 µM (recombinant HarmOBP10 [1]): 50%

activity at 6 µM (recombinant HarmOBP10 [1]; [3]): 55%
SMILES: CCCCCCCCCCCCCCCCO [1-Hexadecanol]

SMILES: c1ccc(Nc2cccc3ccccc23)cc1 [1-NPN]
Kd (recombinant HarmOBP10 [2]; 2 µM protein in 50 mM Tris-HCl, pH 7.4, single binding site, averages of three replicates, read-out: dissociation constant of 1-NPN): 5.7 µM
effect of pH on affinity of 1-NPN (recombinant HarmOBP10 [2]; pH range from 5 to 9.4): marked loss of affinity in acidic conditions

activity at 6 µM (recombinant HarmOBP10 [1]; [3]): 56%
SMILES: CCCCCCCCCCCCCCCCCCO [1-Octadecanol]

IC50 (recombinant HarmOBP10 [1]): 1.8 µM
Kd (recombinant HarmOBP10 [1]): 1.4 µM
quality as ligand of OBP10, in words (recombinant HarmOBP10 [1]): maximum of affinity
activity at 6 µM (recombinant HarmOBP10 [1]): 36%
SMILES: CCCCCCCCCCCCCCO [1-Tetradecanol]

activity at 6 µM (recombinant HarmOBP10 [1]; [3]): 85%
SMILES: CCCCCCCCCCCCCO [1-Tridecanol]

Kd (recombinant HarmOBP10 [1]; [4]): 13.2 µM
activity at 16 µM (recombinant HarmOBP10 [1]; [5]): 51%
SMILES: CCCCCCCCCCC(C)=O [2-Dodecanone]

SMILES: Cc1ccc2ccccc2c1 [2-Methylnaphthalene]
activity at 16 µM (recombinant HarmOBP10 [1]): 75%

activity at 16 µM (recombinant HarmOBP10 [1]; [5]): 77%
SMILES: CC(=O)OCCc1ccccc1 [2-Phenylethyl acetate]

activity at 16 µM (recombinant HarmOBP10 [1]; [5]): 60%
SMILES: CCCCCCCCCCCC(C)=O [2-Tridecanone]

activity at 16 µM (recombinant HarmOBP10 [1]; [5]): 59%
SMILES: CC(=O)OCCC(C)CCCC(C)C (stereo not shown) [3,7-Dimethyloctyl acetate]

Kd (recombinant HarmOBP10 [1]; [4]): 4.7 µM
activity at 16 µM (recombinant HarmOBP10 [1]; [5]): 34%
IC50 (recombinant HarmOBP10 [1]; [6]): 6 µM
SMILES: CC(C)CCCC(C)CCOC(=O)c1ccccc1 (stereo not shown) [3,7-Dimethyloctyl benzoate]

activity at 16 µM (recombinant HarmOBP10 [1]; [5]): 65%
SMILES: COc1ccc(-c2ccccc2)cc1 [4-Phenylanisole]

activity at 16 µM (recombinant HarmOBP10 [1]; [5]): 73%
SMILES: O=C(O)CCCc1ccccc1 [4-Phenylbutyric acid]

activity at 1.6 µM (recombinant HarmOBP10 [1]; [7]): 65%
SMILES: CCCCCC/C=C\CCCCCCCCO [(Z)-9-Hexadecen-1-ol]

activity at 1.6 µM (recombinant HarmOBP10 [1]; [7]): 73%
SMILES: CCCCCC/C=C\CCCCCCCC=O [(Z)-9-Hexadecenal]

activity at 1.6 µM (recombinant HarmOBP10 [1]; [7]): 74%
SMILES: CCCC/C=C\CCCCCCCCCCO [(Z)-11-Hexadecen-1-ol]

activity at 1.6 µM (recombinant HarmOBP10 [1]; [7]): 76%
SMILES: CCCC/C=C\CCCCCCCCCC=O [(Z)-11-Hexadecenal]

Kd (recombinant HarmOBP10 [1]; [4]): 10.9 µM
% at max (percent of fluorescence measured at the maximum concentration) (recombinant HarmOBP10 [1]; [5]): 48%
IC50 (recombinant HarmOBP10 [1]; [6]): 14 µM
SMILES: CCCCOC(=O)c1ccc(C(C)(C)C)cc1 [Butyl p-tert-butylbenzoate]

SMILES: O=C(O)/C=C/c1ccccc1 [Cinnamic acid]
activity at 16 µM (recombinant HarmOBP10 [1]): 74%

SMILES: CC(C)=CCC/C(C)=C/C=O [Citral]
activity at 16 µM (recombinant HarmOBP10 [1]): 66%

SMILES: CC(C)=CCCC(C)=CC#N [Citralva]
% at max (percent of fluorescence measured at the maximum concentration) (recombinant HarmOBP10 [1]; [5]): 60%

SMILES: COc1cc(/C=C/C=O)ccc1O [Coniferyl aldehyde]
IC50 (recombinant HarmOBP10 [1]): 7.5 µM
Kd (recombinant HarmOBP10 [1]): 5.8 µM
activity at 16 µM (recombinant HarmOBP10 [1]): 30%

% at max (percent of fluorescence measured at the maximum concentration) (recombinant HarmOBP10 [1]; [5]): >100%
SMILES: CC(C=O)Cc1ccc(C(C)C)cc1 (stereo not shown) [Cyclamen aldehyde]

activity at 16 µM (recombinant HarmOBP10 [1]; [5]): > 100%
SMILES: CCCCCCCCCC=O [Decanal]

activity at 6 µM (recombinant HarmOBP10 [1]; [3]): 62%
SMILES: CCCCCCCCCC(=O)O [Decanoic acid]

activity at 6 µM (recombinant HarmOBP10 [1]; [3]): 73%
SMILES: CCCCCCCCCCCC=O [Dodecanal]

activity at 16 µM (recombinant HarmOBP10 [1]; [5]): > 100%
SMILES: CCCCCCCCCCCCOC(C)=O [Dodecyl acetate]

SMILES: CCCCCCCCCC(=O)OCC [Ethyl decanoate]
Kd (recombinant HarmOBP10 [1]; [4]): 4.3 µM
IC50 (recombinant HarmOBP10 [1]; [6]): 5.5 µM
activity at 6 µM (recombinant HarmOBP10 [1]): 44%

activity at 6 µM (recombinant HarmOBP10 [1]; [3]): 70%
SMILES: CCCCCCCCCCCC(=O)OCC [Ethyl laurate]

activity at 6 µM (recombinant HarmOBP10 [1]; [3]): 73%
SMILES: CCCCCCCCCCCCCC(=O)OCC [Ethyl myristate]

activity at 6 µM (recombinant HarmOBP10 [1]; [3]): 69%
SMILES: CCCCCCCCCCCCCCCC(=O)OCC [Ethyl palmitate]

SMILES: C=CCc1ccc(O)c(OC)c1 [Eugenol]
activity at 16 µM (recombinant HarmOBP10 [1]): 80%

SMILES: CC(C)=CCC/C(C)=C/CC/C(C)=C/CO [Farnesol]
Kd (recombinant HarmOBP10 [1]; [4]): 5.4 µM
activity at 6 µM (recombinant HarmOBP10 [1]): 54%

activity at 16 µM (recombinant HarmOBP10 [1]; [5]): 69%
SMILES: CC(C)=CCC/C(C)=C/CO [Geraniol]

SMILES: COc1cc(CC(=O)O)ccc1O [Homovanillic acid]
activity at 16 µM (recombinant HarmOBP10 [1]): 66%

Kd (recombinant HarmOBP10 [1]; [4]): 10.5 µM
activity at 16 µM (recombinant HarmOBP10 [1]; [5]): 48%
IC50 (recombinant HarmOBP10 [1]; [6]): 13.5 µM
SMILES: CC(CC=O)CCCC(C)(C)O (stereo not shown) [Hydroxycitronellal]

Kd (recombinant HarmOBP10 [1]; [4]): 12.4 µM
% at max (percent of fluorescence measured at the maximum concentration) (recombinant HarmOBP10 [1]; [5]): 50%
IC50 (recombinant HarmOBP10 [1]; [6]): 16 µM
SMILES: CC(CCCC(C)(C)O)CC(=O)O (stereo not shown) [Hydroxycitronellic acid]

activity at 6 µM (recombinant HarmOBP10 [1]; [3]): 56%
SMILES: CCCCC/C=C\C/C=C\CCCCCCCC(=O)O [Linoleic acid]

activity at 16 µM (recombinant HarmOBP10 [1]; [5]): > 100%
SMILES: COC(=O)C=Cc1ccccc1 [Methyl cinnamate]

activity at 16 µM (recombinant HarmOBP10 [1]; [5]): > 100%
SMILES: CCCCCCCCC=O [Nonanal]

SMILES: CCCCC/C(C=O)=C/c1ccccc1 [a-Amylcinnamaldehyde]
quality as ligand of OBP10, in words (recombinant HarmOBP10 [1]): Even better ligands
Kd (recombinant HarmOBP10 [1]; [4]): 2.7 µM
% at max (percent of fluorescence measured at the maximum concentration) (recombinant HarmOBP10 [1]; [5]): 13%
IC50 (recombinant HarmOBP10 [1]; [6]): 3.5 µM

Kd (recombinant HarmOBP10 [1]; [4]): 9.7 µM
% at max (percent of fluorescence measured at the maximum concentration) (recombinant HarmOBP10 [1]; [5]): 37%
IC50 (recombinant HarmOBP10 [1]; [6]): 12.5 µM
SMILES: COC(C=O)=Cc1ccccc1 [a-Methoxycinnamaldehyde]

quality as ligand of OBP10, in words (recombinant HarmOBP10 [1]): poor ligand
activity at 16 µM (recombinant HarmOBP10 [1]; [5]): 62%
SMILES: CCCCOC(=O)c1ccccc1 [n-Butyl benzoate]

SMILES: CCCCOC(=O)C=Cc1ccccc1 [n-Butyl cinnamate]
Kd (recombinant HarmOBP10 [1]; [4]): 9.7 µM
% at max (percent of fluorescence measured at the maximum concentration) (recombinant HarmOBP10 [1]; [5]): 42%
IC50 (recombinant HarmOBP10 [1]; [6]): 12.5 µM

SMILES: CCCCCCOC(=O)c1ccccc1 [n-Hexyl benzoate]
Kd (recombinant HarmOBP10 [1]; [4]): 5.8 µM
% at max (percent of fluorescence measured at the maximum concentration) (recombinant HarmOBP10 [1]; [5]): 35%
IC50 (recombinant HarmOBP10 [1]; [6]): 7.5 µM

SMILES: CCCCCCCCOC(=O)c1ccccc1 [n-Octyl benzoate]
quality as ligand of OBP10, in words (recombinant HarmOBP10 [1]): the best
Kd (recombinant HarmOBP10 [1]; [4]): 3.1 µM
% at max (percent of fluorescence measured at the maximum concentration) (recombinant HarmOBP10 [1]; [5]): 29%
IC50 (recombinant HarmOBP10 [1]; [6]): 4 µM

SMILES: CC(C)c1ccc(C=O)cc1 [p-Isopropylbenzaldehyde]
% at max (percent of fluorescence measured at the maximum concentration) (recombinant HarmOBP10 [1]; [5]): 77%

quality as ligand of OBP10, in words (recombinant HarmOBP10 [1]): Even better ligands
Kd (recombinant HarmOBP10 [1]; [4]): 2.6 µM
% at max (percent of fluorescence measured at the maximum concentration) (recombinant HarmOBP10 [1]; [5]): 13%
IC50 (recombinant HarmOBP10 [1]; [6]): 3.3 µM
SMILES: CC(C)(C)c1ccc(C(=O)c2ccccc2)cc1 [p-tert-Butylbenzophenone]
